Reference: ChEMBL document CHEMBL1140579, “Synthesis of andrographolide derivatives and their TNF-alpha and IL-6 expression inhibitory activities” (2007)

How the values were obtained:
Conditions in all cases: J774.A1, 24 h
[1] = test system: J774.A1; test: IL6 secretion in mouse J774A.1 cells at 20 uM after 24 hrs by ELISA
[2] = test system: J774.A1; test: Inhibition of TNFalpha secretion in mouse J774A.1 cells at 20 uM after 24 hrs by ELISA; values are per cent of control
[3] = test system: J774.A1; test: Inhibition of LPS-induced TNFalpha secretion in mouse J774A.1 cells at 20 uM after 24 hrs by ELISA; values are per cent of control
[4] = test system: J774.A1; test: Inhibition of LPS-induced IL6 secretion in mouse J774A.1 cells at 20 uM after 24 hrs by ELISA; values are per cent of control

SMILES	% of control at 20 µM [1] [%]	level, % of control at 20 µM [2] [%]	level, % of control at 20 µM [3] [%]	level, % of control at 20 µM [4] [%]
C[C@@]12COS(=O)O[C@@H]1CC[C@@]1(C)C3CC(C4=CCOC4=O)O[C@]3(C)CC[C@H]21 (stereo partly drawn)	79.7	61.8	231	208
CCCCCC(=O)O[C@@H]1CC[C@@]2(C)C3CC(C4=CCOC4=O)O[C@]3(C)CC[C@@H]2[C@]1(C)CO (stereo partly drawn)	69.8	44.4	106	102
C=C1CC[C@@H]2[C@](C)(CO)[C@H](O)CC[C@@]2(C)[C@@H]1CC(OC(=O)CC)C1=CCOC1=O (stereo partly drawn)	82.6	70	96.9	74.7
C=C1CC[C@@H]2[C@](C)(CO)[C@H](O)CC[C@@]2(C)[C@@H]1CC(OC(=O)CCCCC)C1=CCOC1=O (stereo partly drawn)	82.9	79.6	76	46.6
C=C1CC[C@@H]2[C@](C)(CO)[C@H](O)CC[C@@]2(C)[C@@H]1CC(OC(=O)c1ccccc1)C1=CCOC1=O (stereo partly drawn)	82	92.9	60.8	37.5
C=C1CC[C@@H]2[C@](C)(CO)[C@H](O)CC[C@@]2(C)[C@@H]1CC(OC(=O)c1ccc(C)cc1)C1=CCOC1=O (stereo partly drawn)	128	152	41.6	32.1
C=C1CC[C@@H]2[C@](C)(CO)[C@H](O)CC[C@@]2(C)[C@@H]1CC(OC(=O)C/C=C/c1ccc2c(c1)OCO2)C1=CCOC1=O (stereo partly drawn)	96	149	61	56.9
CCC(=O)OC[C@@]1(C)[C@H]2CC[C@@]3(C)OC(C4=CCOC4=O)CC3[C@]2(C)CC[C@H]1OC(=O)CC (stereo partly drawn)	60.5	82.8	115	110
C[C@]1(COC(=O)C(=O)CCC(=O)O)[C@H]2CC[C@@]3(C)OC(C4=CCOC4=O)CC3[C@]2(C)CC[C@H]1OC(=O)C(=O)CCC(=O)O (stereo partly drawn)	55	81.7	129	114
C=C1CC[C@@H]2[C@](C)(CO)[C@H](O)CC[C@@]2(C)[C@@H]1CC(OC(C)=O)C1=CCOC1=O (stereo partly drawn)	95.1	107	62.7	44.7
CCCCCC(=O)OC[C@@]1(C)[C@H]2CC[C@@]3(C)OC(C4=CCOC4=O)CC3[C@]2(C)CC[C@H]1OC(=O)CCCCC (stereo partly drawn)	31.4	35.7	43.8	85.2
C=C1CC[C@@H]2[C@](C)(CO)[C@H](O)CC[C@@]2(C)[C@@H]1CC(OC(=O)c1ccc([N+](=O)[O-])cc1)C1=CCOC1=O (stereo partly drawn)	58.6	65.8	60	29.2
C[C@]1(COC=O)[C@H]2CC[C@@]3(C)OC(C4=CCOC4=O)CC3[C@]2(C)CC[C@H]1OC(=O)c1ccccc1 (stereo partly drawn)	27.7	28.5	36.5	85.7
C=C1CC[C@@H]2[C@](C)(CO)[C@H](O)CC[C@@]2(C)[C@@H]1CC(OC(=O)c1cc2c(cc1[N+](=O)[O-])OCO2)C1=CCOC1=O (stereo partly drawn)	70.1	115	94.4	44.6
CC(=O)OC[C@@]1(C)[C@H]2CC[C@@]3(C)OC(C4=CCOC4=O)CC3[C@]2(C)CC[C@H]1OC(C)=O (stereo partly drawn)	72.9	80	99.4	150
C[C@]1(COC(=O)c2ccccc2)[C@H]2CC[C@@]3(C)OC(C4=CCOC4=O)CC3[C@]2(C)CC[C@H]1OC(=O)c1ccccc1 (stereo partly drawn)	48.2	204	294	107
C=C1CC[C@@H]2[C@](C)(CO)[C@H](O)CC[C@@]2(C)[C@@H]1C/C=C1/C(=O)OC[C@H]1O [ANDROGRAPHOLIDE]	49.2	63.9	62.5	56
